16 compounds from US11814445B2, “Cyclic polypeptides for PCSK9 inhibition” (Ra Pharmaceuticals, Inc., priority 2018, dated 2023) can be followed below.

Numbered stars: 1 amine (or outer) side, 2 acyl side, 3 side chain; on linkers, the order of the positions; unused ones are H or OH. Bridge positions count the residues as written; N and C are the ends. Square brackets hold non-standard residues; d marks the D form. Peptide text beside a SMILES is read from it. X6 = O=C([C@H](Cc1cccc(OCC=[*:3])c1)N[*:1])[*:2]; Phe(4-COOH) = N[C@@H](Cc1ccc(C(=O)O)cc1)C(=O)O; Phe(4-tBu) = CC(C)(C)c1ccc(C[C@H](N)C(=O)O)cc1; Trp(5-F) = N[C@@H](Cc1c[nH]c2ccc(F)cc12)C(=O)O; mXylylene = c1cc(C[*:1])cc(C[*:2])c1; Bta = N[C@@H](Cc1csc2ccccc12)C(=O)O; X5 = O=C(CN(CCCCC=[*:3])[*:1])[*:2]; X4 = O=C(CN(CCCC=[*:3])[*:1])[*:2]; X7 = O=C(CN(CC=[*:3])[*:1])[*:2]; Cha = N[C@@H](CC1CCCCC1)C(=O)O; aThr = C[C@H](O)[C@H](N)C(=O)O; αMeP = C[C@@]1(C(=O)O)CCCN1; hSer = N[C@@H](CCO)C(=O)O; Ahx = NCCCCCC(=O)O; Mpa = O=C(O)CCS

Holding throughout (assay type): binding
Assay [1] concerns the target T1, PCSK9 (Homo sapiens, UniProt Q8NBP7).
T1 construct: biotin (biotinylated)
Kind of assay: PCSK9 Alexa FRET Plus assay (displacement of AlexaFluor647 tagged cyclic peptide Reagent B). The following applies: 0.5 nM PCSK9, 960 nM AF cyclic peptide Reagent B. As for the experimental part: A solution containing 1 nM biotinylated PCSK9+2.5 nM Lance Streptavidin Europium (Strep-Eu) was made in 50 mM HEPES pH 7.4, 0.15 M NaCl, 5 mM CaCl2), 0.01% BSA, and 0.01% Surfactant P20. A separate solution containing 1920 nM of the AlexaFluor tagged cyclic peptide was made in the same buffer system. An Echo was used to transfer 0.075 ul of compound plus 0.675 ul of DMSO to each well of an assay plate followed by the addition of 15 ul of PCSK9+Stept-Eu and 15 ul of AF peptide. The final assay volume was 30.750 ul containing 0.5 nM PCSK9, 1.25 nM Strep-Eu, and 960 nM AF cyclic peptide. The reaction was incubated at room temperature for at least two hours prior to fluorescence measurements using an Envision Multilabel Reader. IC50 values were determined by fitting data to a sigmoidal dose-response curve using nonlinear regression. Ki was then calculated from the IC50 and the KD of AF cyclic peptide. Counts (B-counts) of the europium-labeled PCSK9 were followed to observe if compounds were adversely affecting PCSK9. A fall off of the B-counts likely indicated a false positive of inhibition. Data from this procedure was reported as “P=‘numerical value’ (nanomolar)”

Assay [2] deals with T1, PCSK9. Briefly: PCSK9 Alexa FRET Standard assay (displacement of AlexaFluor647 tagged cyclic peptide Reagent A). The following applies: 0.5 nM PCSK9, 20 nM AF cyclic peptide Reagent A. As for the experimental part:
A solution containing 1 nM biotinylated PCSK9+2.5 nM Lance Streptavidin Europium (Strep-Eu) was made in 50 mM HEPES pH 7.4, 0.15 M NaCl, 5 mM CaCl2), 0.01% BSA, and 0.01% Surfactant P20. A separate solution containing 40 nM of the AlexaFluor tagged cyclic peptide was made in the same buffer system. An Echo was used to transfer 0.750 ul of compound to an assay plate followed by the addition of 15 ul of PCSK9+Stept-Eu and 15 ul of AF peptide. The final assay volume was 30.750 ul containing 0.5 nM PCSK9, 1.25 nM Strep-Eu, and 20 nM AF cyclic peptide. The reaction was incubated at room temperature for at least two hours prior to fluorescence measurements using an Envision Multilabel Reader. IC50 values were determined by fitting data to a sigmoidal dose-response curve using nonlinear regression. Ki was then calculated from the IC50 and the KD of AF cyclic peptide. Counts (B-counts) of the europium-labeled PCSK9 were followed to observe if compounds were […]. A fall off of the B-counts likely indicated a false positive of inhibition. Data from this procedure was reported as “A=‘numerical value’ (nanomolar)”

In assay [3] the target is human PCSK9 / human LDLR EGFa domain (Homo sapiens, UniProt Q8NBP7). Briefly: TR-FRET assay of inhibition of the PCSK9-LDLR protein-protein interaction. The settings on record: 20 nM human PCSK9, 20 nM human LDLR EGFa domain, 2 hours room temperature. An outline of the steps: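 Avitag-biotinylated human PCSK9 (20 nM) and his-tagged human LDLR EGFa domain (20 nM) were incubated with 5 nM Ulight streptavidin and 5 nM europium anti-6×His for 2 h at room temperature. Buffer: 50 mM HEPES, 150 mM NaCl, 5 mM CaCl2, 0.01% BSA, 0.01% P20. IC50 from 4-parameter fit of dose-response.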
human PCSK9 / human LDLR EGFa domain, sequence (Q8NBP7 153-692): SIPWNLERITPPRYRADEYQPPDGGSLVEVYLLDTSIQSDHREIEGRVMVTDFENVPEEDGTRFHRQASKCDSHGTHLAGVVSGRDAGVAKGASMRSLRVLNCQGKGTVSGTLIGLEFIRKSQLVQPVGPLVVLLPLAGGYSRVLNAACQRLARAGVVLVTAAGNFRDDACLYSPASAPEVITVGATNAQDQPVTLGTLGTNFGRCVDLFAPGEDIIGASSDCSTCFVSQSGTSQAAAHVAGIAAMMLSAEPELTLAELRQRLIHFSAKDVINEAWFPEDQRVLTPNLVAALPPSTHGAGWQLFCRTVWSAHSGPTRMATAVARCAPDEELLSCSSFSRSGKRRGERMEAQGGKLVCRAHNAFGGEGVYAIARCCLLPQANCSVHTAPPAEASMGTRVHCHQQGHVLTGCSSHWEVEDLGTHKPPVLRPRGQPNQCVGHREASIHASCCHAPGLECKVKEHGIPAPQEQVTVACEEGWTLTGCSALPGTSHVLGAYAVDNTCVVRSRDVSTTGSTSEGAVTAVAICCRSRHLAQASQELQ

T1 sequence (Q8NBP7 153-692): as above

`C[C@@H]1NC(=O)[C@@H]2CCCN2C(=O)[C@H](Cc2ccc(C(C)(C)C)cc2)NC(=O)[C@H](Cc2c[nH]c3ccc(F)cc23)NC(=O)CNC(=O)[C@H](CCCCN)NC(=O)CCSCc2cccc(c2)CSC[C@@H](C(N)=O)NC(=O)[C@@H]2CCCN2C(=O)[C@H](Cc2ccc(O)cc2)NC1=O` [Compound 016] ([Mpa]KG[Trp(5-F)][Phe(4-tBu)]PAYPC-NH2; linker 1-10 via mXylylene): the IC50 in assay [1], in assay [2] and in assay [3] was 1 to 100 nM throughout.
In the case of `C[C@@H]1NC(=O)[C@@H]2CCCN2C(=O)[C@H](Cc2csc3ccccc23)NC(=O)[C@H](Cc2c[nH]c3ccc(F)cc23)NC(=O)CNC(=O)[C@H](CCCCN)NC(=O)CCSCc2cccc(c2)CSC[C@@H](C(N)=O)NC(=O)[C@@H]2CCCN2C(=O)[C@H](Cc2ccc(O)cc2)NC1=O` [Compound 024] ([Mpa]KG[Trp(5-F)][Bta]PAYPC-NH2; linker 1-10 via mXylylene), the IC50 in assay [1], in assay [2] and in assay [3] was 1 to 100 nM throughout.
Take `C[C@@H]1NC(=O)[C@@H]2CCCN2C(=O)[C@H](CC2CCCCC2)NC(=O)[C@H](Cc2c[nH]c3ccc(F)cc23)NC(=O)CNC(=O)[C@H](CCCCN)NC(=O)CCSCc2cccc(c2)CSC[C@@H](C(N)=O)NC(=O)[C@@H]2CCCN2C(=O)[C@H](Cc2ccc(O)cc2)NC1=O` [Compound 025] ([Mpa]KG[Trp(5-F)][Cha]PAYPC-NH2; linker 1-10 via mXylylene): the IC50 in assay [1], in assay [2] and in assay [3] was 1 to 100 nM in each case.
With `C[C@H](O)[C@@H]1NC(=O)CNC(=O)[C@H](CCCCN)NC(=O)CCSCc2cccc(c2)CSC[C@@H](C(N)=O)NC(=O)[C@]2(C)CCCN2C(=O)[C@H](Cc2ccc(O)cc2)NC(=O)[C@H](Cc2cnc[nH]2)NC(=O)[C@H](CC(=O)O)NC(=O)[C@H](Cc2c[nH]c3ccc(F)cc23)NC1=O` [Compound 114] ([Mpa]KG[aThr][Trp(5-F)]DHY[αMeP]C-NH2; linker 1-10 via mXylylene), the IC50 in assay [2] and in assay [3] was 100 to 1000 nM in each case.
On to `NCCCC[C@@H]1NC(=O)CCSCc2cccc(c2)CSC[C@@H](C(N)=O)NC(=O)[C@@H]2CCCN2C(=O)[C@H](Cc2ccc(O)cc2)NC(=O)[C@H](Cc2cnc[nH]2)NC(=O)[C@H](CCO)NC(=O)[C@H](Cc2c[nH]c3ccc(F)cc23)NC(=O)[C@H](Cc2c[nH]c3ccc(F)cc23)NC(=O)CNC1=O` [Compound 117] ([Mpa]KG[Trp(5-F)][Trp(5-F)][hSer]HYPC-NH2; linker 1-10 via mXylylene), for which the IC50 was 1 to 100 nM in assay [2] and 100 to 1000 nM in assay [3].
For `COc1ccc(C[C@@H]2NC(=O)[C@H](C)NC(=O)CN3C/C=C\COc4cccc(c4)C[C@H](NC(=O)CNC(=O)CCCCCNC(=O)c4ccc(cc4)C[C@@H](C(N)=O)NC(=O)[C@]4(C)CCCN4C2=O)C(=O)N[C@@H](Cc2c[nH]c4ccc(F)cc24)C3=O)cc1` [Compound 121] ([Ahx]G[X6][Trp(5-F)][X7]AY(Me)[αMeP][Phe(4-COOH)]-NH2; staple (Z) 3-5; lactam N-9) the same measures were 1 to 100 nM and 100 to 1000 nM.
For `COc1ccc(C[C@@H]2NC(=O)[C@H](C)NC(=O)CN3CCCC/C=C\CCCN(CC(=O)N[C@@H](Cc4c[nH]c5ccc(F)cc45)C3=O)C(=O)CNC(=O)CCCCCNC(=O)c3ccc(cc3)C[C@@H](C(N)=O)NC(=O)[C@]3(C)CCCN3C2=O)cc1` [Compound 122] ([Ahx]G[X4][Trp(5-F)][X5]AY(Me)[αMeP][Phe(4-COOH)]-NH2; staple (Z) 3-5; lactam N-9) the same measures were 100 to 1000 nM and 1000 to 12100 nM.
As to `COc1ccc(C[C@@H]2NC(=O)[C@H](C)NC(=O)CN3CCCCCCCCCN(CC(=O)N[C@@H](Cc4c[nH]c5ccc(F)cc45)C3=O)C(=O)CNC(=O)CCCCCNC(=O)c3ccc(cc3)C[C@@H](C(N)=O)NC(=O)[C@]3(C)CCCN3C2=O)cc1` [Compound 123], the concentration for half-maximal inhibition (IC50) in assay [2] is 1 to 100 nM; in assay [3], 100 to 1000 nM.
For `COc1ccc(C[C@@H]2NC(=O)[C@H](C)NC(=O)CN3CCCCOc4cccc(c4)C[C@H](NC(=O)CNC(=O)CCCCCNC(=O)c4ccc(cc4)C[C@@H](C(N)=O)NC(=O)[C@]4(C)CCCN4C2=O)C(=O)N[C@@H](Cc2c[nH]c4ccc(F)cc24)C3=O)cc1` [Compound 124], in that order: 1 to 100 nM and 100 to 1000 nM.
For `COc1ccc(C[C@@H]2NC(=O)[C@H]([C@@H](C)O)NC(=O)CN3CCCCCOc4cccc(c4)C[C@@H](NC(=O)[C@@H](C)NC(=O)[C@H](C)NC(=O)CCSCc4cccc(c4)CSCCNC(=O)[C@]4(C)CCCN4C2=O)C(=O)N[C@@H](Cc2c[nH]c4ccc(F)cc24)C3=O)cc1` [Compound 125] the same measures were 100 to 1000 nM and 100 to 1000 nM.
For `COc1ccc(C[C@@H]2NC(=O)[C@H]([C@@H](C)O)NC(=O)CN3CCCCOc4cccc(c4)C[C@H](NC(=O)[C@@H](C)NC(=O)[C@H](C)NC(=O)CCSCc4cccc(c4)CSCCNC(=O)[C@]4(C)CCCN4C2=O)C(=O)N[C@H](Cc2c[nH]c4ccc(F)cc24)C3=O)cc1` [Compound 126], in that order: 1 to 100 nM and 1 to 100 nM.
For `COc1ccc(C[C@@H]2NC(=O)[C@H](C)NC(=O)[C@@H]3CCC(=O)NCc4cccc(c4)C[C@H](NC(=O)CNC(C)=O)C(=O)N[C@@H](Cc4cn(c5ccc(F)cc45)Cc4cn(nn4)CC[C@@H](C(N)=O)NC(=O)[C@]4(C)CCCN4C2=O)C(=O)N3)cc1` [Compound 127], the half-maximal inhibitory concentration (IC50) is 1 to 100 nM in assay [2] and 100 to 1000 nM in assay [3].
For `COc1ccc(C[C@@H]2NC(=O)[C@H](C)NC(=O)[C@@H]3CCCN3C(=O)[C@@H]3Cc4cn(c5ccc(F)cc45)Cc4cn(nn4)-c4c(cccc4CSCCC(=O)N[C@H](C)C(=O)NCC(=O)N[C@@H](Cc4c[nH]c5ccc(F)cc45)C(=O)N3)CSCCNC(=O)[C@]3(C)CCCN3C2=O)cc1` [Compound 128], in that order: 1 to 100 nM and 100 to 1000 nM.
Regarding `COc1ccc(C[C@@H]2NC(=O)[C@H]([C@@H](C)O)NC(=O)[C@@H]3CCCN3C(=O)[C@H]3Cc4cn(c5ccc(F)cc45)Cc4cn(nn4)-c4cc(cc(c4)CSCCC(=O)N[C@@H](C)C(=O)N[C@H](C)C(=O)N[C@@H](Cc4c[nH]c5ccc(F)cc45)C(=O)N3)CSCCNC(=O)[C@]3(C)CCCN3C2=O)cc1` [Compound 129], the IC50 in assay [2] and in assay [3] was 1000 to 12100 nM each time.
For the compound `COc1ccc(C[C@@H]2NC(=O)[C@H]([C@@H](C)O)NC(=O)[C@H]3C[C@@H](F)CN3C(=O)[C@H]3Cc4cn(c5ccc(F)cc45)Cc4cn(nn4)-c4cc(cc(c4)CSCCC(=O)N[C@@H](C)C(=O)N[C@H](C)C(=O)N[C@@H](Cc4c[nH]c5ccc(F)cc45)C(=O)N3)CSCCNC(=O)[C@]3(C)CCCN3C2=O)cc1` [Compound 130], the concentration for half-maximal inhibition (IC50) is 100 to 500 nM in assay [1] and 100 to 1000 nM in assay [2].
For `COc1ccc(C[C@@H]2NC(=O)[C@H]([C@@H](C)OC)NC(=O)[C@H]3CCCN3C(=O)[C@H]3Cc4cn(c5ccc(F)cc45)Cc4cn(nn4)-c4cc(cc(c4)CSCCC(=O)N[C@@H](C)C(=O)N[C@H](C)C(=O)N[C@@H](Cc4c[nH]c5ccc(F)cc45)C(=O)N3)CSCCNC(=O)[C@]3(C)CCCN3C2=O)cc1` [Compound 131] the same measures were 1 to 100 nM and 1 to 100 nM.

The term IC50 denotes the concentration at which inhibition is half-maximal.
